Assay results published in ChEMBL document CHEMBL1201862, “PubChem BioAssay data set” (2004).
Activity calls are given as the source filed them.

Experiments:
Escherichia coli = experiment: microbe, parasite or virus in culture
[1] = biological target: 72 kDa type IV collagenase (Homo sapiens, UniProt P08253); experiment: Dose Response validation of uHTS RPN11 inhibitor hits using a MMP-2 Fluorescence assay.; type: functional
[2] = biological target: 26S proteasome non-ATPase regulatory subunit 14 (Homo sapiens, UniProt O00487); experiment: inhibition of proteasome subunit RPN11 – biochemical, fluorescence polarization, uHTS hits, confirmation (AID 602368); type: functional
26S proteasome non-ATPase regulatory subunit 14, sequence (O00487 whole entry): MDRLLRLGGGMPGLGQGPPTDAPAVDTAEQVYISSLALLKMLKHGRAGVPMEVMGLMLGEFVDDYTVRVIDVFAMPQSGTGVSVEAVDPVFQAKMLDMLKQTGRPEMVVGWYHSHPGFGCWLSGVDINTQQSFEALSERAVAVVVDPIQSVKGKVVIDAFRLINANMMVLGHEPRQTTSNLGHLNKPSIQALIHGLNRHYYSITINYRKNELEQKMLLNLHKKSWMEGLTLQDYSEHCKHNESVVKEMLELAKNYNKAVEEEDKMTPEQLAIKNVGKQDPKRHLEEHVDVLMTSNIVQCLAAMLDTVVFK

Prothrombin = Prothrombin (Bos taurus, UniProt P00735); experiment: thrombin protease inhibitors – biochemical, fluorescence polarization, uHTS hits, dose response (AID 602369); type: functional
Streptococcus = experiment: GAS UMAA2166 growth inhibition – luminescence, BacTiterGlo, counter-screen for streptokinase expression inhibitor project, dose response (AID 1915); type: functional, organism-based;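 note: potency for reduction of bacterial viability or growth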
[3] = system: Streptococcus sp. 'group A'; experiment: Streptococcus pyogenes SK(-)GAS viability under kanamycin – luminescence, BacTiterGlo, confirmation, counter-screen for streptokinase expression inhibitor project, dose response (AID 1900); type: functional, organism-based
cells = type: functional
H9c2 = experiment: cells; type: functional, cell-based; conditions: Rattus norvegicus, H9c2, Myocardium;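 note: confirmatory concentration-response retest of ultra-high-throughput screening hits for modulation of myocardial damage; cell death induced by hydrogen peroxide oxidative stress; compound pretreatment for 60 min then peroxide exposure for 2 h; potency is for protecting the cells against peroxide damage rather than for killing them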
HeLa = experiment: ATP-based viability loss in HeLa cells – cell-based, CellTiter-Glo luminescence, cherry-pick samples, cytotoxicity control for MITF activator project, dose response (AID 540259); type: functional; conditions: Homo sapiens
[4] = biological target: T1, Low molecular weight phosphotyrosine protein phosphatase (Homo sapiens, UniProt P24666); type: functional; conditions: read-out: IC50_Mean;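 note: Dose-response confirmation assay measuring inhibition of LMPTP enzyme activity by fluorescence intensity read-out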
T1 sequence (P24666 whole entry): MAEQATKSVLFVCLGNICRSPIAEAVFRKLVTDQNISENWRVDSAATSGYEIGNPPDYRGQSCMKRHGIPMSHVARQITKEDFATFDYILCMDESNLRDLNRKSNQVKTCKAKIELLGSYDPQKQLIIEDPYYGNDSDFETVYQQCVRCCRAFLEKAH

[5] = luciferase reporter signal suppression in cells – H4 neuroglioma cells, luminescence, dose response (AID 1990); type: functional, cell-based
[6] = Luminescence Cell-Based Dose Response HTS to Identify Inhibitors of 5'UTR Stem-Loop Driven Prion Protein mRNA Translation in H4 Neuroglioblastoma Cells. [Related pubchem assays: 1827 (Project Summary), 1813 (Primary HTS)]; type: functional
[7] = alpha-synuclein stem-loop luciferase translation blockers – H4 neuroglioma cells, luminescence, confirmation (AID 1988); type: functional, cell-based
Cytochrome P450 2C19 = Cytochrome P450 2C19 (Homo sapiens, UniProt P33261); experiment: Cytochrome panel assay with activity outcomes. Panel member name: p450-cyp2c19 Compounds with AC50 equal or less than 10 uM are considered active; type: functional
Cytochrome P450 2C19, sequence (P33261 whole entry): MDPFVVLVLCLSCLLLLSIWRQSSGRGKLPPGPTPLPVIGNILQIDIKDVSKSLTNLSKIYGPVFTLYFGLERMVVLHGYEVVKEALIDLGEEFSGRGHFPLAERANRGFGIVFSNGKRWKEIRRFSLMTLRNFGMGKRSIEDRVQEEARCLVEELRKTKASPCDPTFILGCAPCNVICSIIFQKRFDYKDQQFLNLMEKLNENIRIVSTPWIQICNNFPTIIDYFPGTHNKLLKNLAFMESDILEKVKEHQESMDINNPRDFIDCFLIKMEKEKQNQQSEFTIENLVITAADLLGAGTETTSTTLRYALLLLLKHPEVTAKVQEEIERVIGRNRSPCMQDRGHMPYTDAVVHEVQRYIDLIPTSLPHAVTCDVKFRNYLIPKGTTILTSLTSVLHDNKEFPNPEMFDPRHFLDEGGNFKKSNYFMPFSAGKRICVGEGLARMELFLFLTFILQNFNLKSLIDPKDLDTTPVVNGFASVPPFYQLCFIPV

Cytochrome P450 3A4 = Cytochrome P450 3A4 (Homo sapiens, UniProt P08684);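 note: CYP3A4 tested as one member of a cytochrome P450 panel screen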
Cytochrome P450 3A4, sequence (P08684 whole entry): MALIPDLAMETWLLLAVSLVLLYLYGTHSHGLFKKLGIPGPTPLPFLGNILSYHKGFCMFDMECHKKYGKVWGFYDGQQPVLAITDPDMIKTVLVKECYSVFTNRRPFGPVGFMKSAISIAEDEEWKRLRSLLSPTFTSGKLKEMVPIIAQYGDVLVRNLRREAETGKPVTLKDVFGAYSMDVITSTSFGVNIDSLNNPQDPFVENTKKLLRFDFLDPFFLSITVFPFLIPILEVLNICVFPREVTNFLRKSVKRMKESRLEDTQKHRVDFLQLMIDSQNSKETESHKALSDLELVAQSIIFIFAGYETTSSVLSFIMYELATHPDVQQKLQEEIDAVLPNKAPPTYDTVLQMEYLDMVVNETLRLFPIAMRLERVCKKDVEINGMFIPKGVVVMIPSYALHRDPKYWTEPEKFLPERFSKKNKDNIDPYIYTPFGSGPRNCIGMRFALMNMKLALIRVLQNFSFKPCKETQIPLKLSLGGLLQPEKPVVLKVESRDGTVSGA

Cytochrome P450 2D6 = Cytochrome P450 2D6 (Homo sapiens, UniProt P10635);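 note: CYP2D6 member of a cytochrome P450 panel assay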
Cytochrome P450 2D6, sequence (P10635 whole entry): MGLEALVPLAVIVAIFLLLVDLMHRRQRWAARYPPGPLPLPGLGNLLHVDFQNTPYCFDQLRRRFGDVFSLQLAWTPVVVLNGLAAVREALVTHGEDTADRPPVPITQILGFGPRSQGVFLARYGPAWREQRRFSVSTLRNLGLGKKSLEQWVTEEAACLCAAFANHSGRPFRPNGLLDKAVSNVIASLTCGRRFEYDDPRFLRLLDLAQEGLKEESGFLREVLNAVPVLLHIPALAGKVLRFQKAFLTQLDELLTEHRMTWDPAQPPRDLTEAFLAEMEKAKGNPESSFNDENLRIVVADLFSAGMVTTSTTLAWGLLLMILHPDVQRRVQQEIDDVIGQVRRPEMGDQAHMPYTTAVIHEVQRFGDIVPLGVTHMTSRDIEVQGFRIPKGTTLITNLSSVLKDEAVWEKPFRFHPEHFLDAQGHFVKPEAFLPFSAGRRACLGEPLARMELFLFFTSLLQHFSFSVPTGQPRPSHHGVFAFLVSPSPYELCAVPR

72 kDa type IV collagenase, sequence (P08253 whole entry): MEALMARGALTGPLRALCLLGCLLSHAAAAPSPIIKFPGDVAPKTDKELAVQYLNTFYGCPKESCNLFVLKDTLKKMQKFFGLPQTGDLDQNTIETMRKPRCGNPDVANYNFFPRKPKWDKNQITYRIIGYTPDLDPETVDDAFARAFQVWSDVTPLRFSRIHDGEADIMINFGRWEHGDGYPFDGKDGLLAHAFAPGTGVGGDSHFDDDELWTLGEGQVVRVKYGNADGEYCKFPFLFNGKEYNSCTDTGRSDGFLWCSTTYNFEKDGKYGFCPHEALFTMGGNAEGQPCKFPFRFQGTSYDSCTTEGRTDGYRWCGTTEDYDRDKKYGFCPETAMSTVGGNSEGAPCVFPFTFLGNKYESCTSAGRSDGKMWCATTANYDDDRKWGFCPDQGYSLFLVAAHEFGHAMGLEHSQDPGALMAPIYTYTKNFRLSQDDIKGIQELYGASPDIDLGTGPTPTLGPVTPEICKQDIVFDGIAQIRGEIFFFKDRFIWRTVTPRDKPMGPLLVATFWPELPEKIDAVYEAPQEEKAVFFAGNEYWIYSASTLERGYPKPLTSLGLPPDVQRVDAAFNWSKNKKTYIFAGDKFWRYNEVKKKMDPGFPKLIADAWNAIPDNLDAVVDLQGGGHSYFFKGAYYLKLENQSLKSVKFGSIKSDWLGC

**Q.** For CNC(=O)CNC(=O)Nc1ccc(C)cc1, which AC50 (Escherichia coli) is on record?
**A.** 29.8 µM (active)

**Q.** Which AC50 (Escherichia coli) does the source give for O=C(c1ccccc1)N1CCN(c2nc3ccc([N+](=O)[O-])cc3s2)CC1 here?
**A.** 28.7 µM (active)

**Q.** What does the source list for Cn1c(=O)c2cc(S(=O)(=O)NC(C(=O)Nc3cccc(F)c3)c3ccccc3)ccc2n(C)c1=O (stereo unspecified)?
**A.** IC50 [1]: > 100 µM (inactive); IC50 [2]: 92.8 µM (active); IC50 (Prothrombin): > 100 µM (inactive)

**Q.** Which EC50 (Streptococcus) does the source give for CN1CCN(c2cc3c(cc2F)c(=O)c(C(=O)O)cn3CCF)CC1 here?
**A.** 7.64 µM (active)

**Q.** And the AC50 (Escherichia coli)?
**A.** 2.57 µM (active)

**Q.** And the EC50 [3]?
**A.** 5.58 µM (active)

**Q.** And the IC50 (cells)?
**A.** 3.08 µM (active)

**Q.** With COc1ccc(/C=N/NC(=O)c2ccc(COc3cccc4cccnc34)cc2)cc1OC as the compound, how does the IC50 (H9c2) read?
**A.** > 79 µM (inactive)

**Q.** For Cc1ccc2c(c1)nc1c3ccccc3nc(-c3ccccc3N)n21, which IC50 (H9c2) is on record?
**A.** > 79 µM (inactive)

**Q.** For COc1ccc(/N=C2\SC(C(=O)O)CC(=O)N2Cc2ccc(OC)c(OC)c2)cc1 (stereo unspecified), which AC50 (Escherichia coli) is on record?
**A.** 86.2 µM (active)

**Q.** With COc1ccc(C(=O)Nc2ccc3c4c(cccc24)CC3)cc1 as the compound, how does the AC50 (HeLa) read?
**A.** 73.4 µM (active)

**Q.** Which IC50 [4] does the source give for COc1ccc(-n2nc3c(N4CCC(C(=O)NCc5ccco5)CC4)nnc(C)c3c2C)cc1 here?
**A.** 61.1 µM (inactive)

**Q.** And the EC50 [5]?
**A.** > 120 µM (not active)

**Q.** And the EC50 [6]?
**A.** 20.3 µM (active)

**Q.** And the EC50 [7]?
**A.** > 120 µM (not active)

**Q.** For CCCN1CCN(C(=O)CN2C(=O)CC(C)(C)S(=O)(=O)c3ccccc32)CC1, which AC50 (Cytochrome P450 2C19) is on record?
**A.** inconclusive

**Q.** What about the AC50 (Cytochrome P450 3A4) of the same compound?
**A.** 12.6 µM (inconclusive)

**Q.** And the AC50 (Cytochrome P450 2D6)?
**A.** inconclusive

**Q.** With COc1cc2c(C)nc3c(cnn3-c3ccccc3)c2cc1OC as the compound, how does the AC50 (HeLa) read?
**A.** 86.7 µM (active)
